Assay results published in US20250340563A1, “FUSED PYRIDAZINE DERIVATIVES AS NLRP3 INHIBITORS” (Takeda Pharmaceutical Company Limited, priority 2022, published 2025).

Key:
[1] = molecular target: NLRP3 inflammasome (Homo sapiens, UniProt Q96P20); assay: IL-1β assay in IFN-γ-differentiated, LPS-primed, ATP-activated THP-1 cells (ELISA); type: cell-based; conditions: 50 ng/mL LPS priming, 2.5 mM ATP activation, 2 hours
Procedure, shortened: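 Supernatant IL-1β is quantified by ELISA after 2 h of 2.5 mM ATP stimulation at 37 °C, with IC50 taken from a four-parameter fit of % inhibition. Before this, THP-1 macrophages (25 ng/mL IFN-γ, 24 h) were LPS-primed (50 ng/mL, 24 h, no FBS) and exposed to serially diluted compound for 30 min.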

[2] = test system: NF-κB pathway; assay: TNF-α assay in IFN-γ-differentiated, LPS-stimulated THP-1 cells (ELISA); type: cell-based; conditions: Homo sapiens, 50 ng/mL LPS, 3 hours
Description: Monocytic THP-1 cells (ATCC: TIB-202) are maintained in accordance with the provider's instructions in RPMI media (Life Technologies, Cat #A10491-01); RPMI is supplemented with 10% heat inactivated fetal bovine serum (Hyclone Cat #SH30396.03). The cells are differentiated into macrophages by the addition of 25 ng/mL IFN-γ for 24 hours at 37° C./5% CO2. Media is exchanged with fresh media with no FBS. The cells are plated at 40,000 cells per well in 384-well flat-bottom cell culture plates (Costar 3764) containing compounds (added in 1:1000) in a 1:3.16 serial dilution series in DMSO and are incubated for 30 minutes at 37° C./5% CO2. The NF-κB pathway is activated with the addition of 50 ng/mL LPS and the cells are incubated for 3 hours at 37° C./5% CO2. At the end of the incubation period, supernatant (40 μL) is removed, and […] are monitored using an ELISA (Human TNF-α ELISA, R&D systems, Cat #DY210) according to the manufacturer's instructions.
The IC50 values are calculated from a plot of percentage of inhibition versus the inhibitor concentration by a logistics curve fit according to: Y=[Bottom+(Top−Bottom)]/(1+10^[(Log IC50−X)·Hill Slope], where Y is the % inhibition at the inhibitor concentration, X, “Bottom” is the lowest inhibition value, i.e. 0%, “Top” is the maximum inhibition value, i.e. 100%, and the “Hill Slope” describes the slope of the sigmoidal curve between the “Bottom” and “Top” values. The curve fitting was conducted with internally developed software.

Sequence of NLRP3 inflammasome (Q96P20 whole entry): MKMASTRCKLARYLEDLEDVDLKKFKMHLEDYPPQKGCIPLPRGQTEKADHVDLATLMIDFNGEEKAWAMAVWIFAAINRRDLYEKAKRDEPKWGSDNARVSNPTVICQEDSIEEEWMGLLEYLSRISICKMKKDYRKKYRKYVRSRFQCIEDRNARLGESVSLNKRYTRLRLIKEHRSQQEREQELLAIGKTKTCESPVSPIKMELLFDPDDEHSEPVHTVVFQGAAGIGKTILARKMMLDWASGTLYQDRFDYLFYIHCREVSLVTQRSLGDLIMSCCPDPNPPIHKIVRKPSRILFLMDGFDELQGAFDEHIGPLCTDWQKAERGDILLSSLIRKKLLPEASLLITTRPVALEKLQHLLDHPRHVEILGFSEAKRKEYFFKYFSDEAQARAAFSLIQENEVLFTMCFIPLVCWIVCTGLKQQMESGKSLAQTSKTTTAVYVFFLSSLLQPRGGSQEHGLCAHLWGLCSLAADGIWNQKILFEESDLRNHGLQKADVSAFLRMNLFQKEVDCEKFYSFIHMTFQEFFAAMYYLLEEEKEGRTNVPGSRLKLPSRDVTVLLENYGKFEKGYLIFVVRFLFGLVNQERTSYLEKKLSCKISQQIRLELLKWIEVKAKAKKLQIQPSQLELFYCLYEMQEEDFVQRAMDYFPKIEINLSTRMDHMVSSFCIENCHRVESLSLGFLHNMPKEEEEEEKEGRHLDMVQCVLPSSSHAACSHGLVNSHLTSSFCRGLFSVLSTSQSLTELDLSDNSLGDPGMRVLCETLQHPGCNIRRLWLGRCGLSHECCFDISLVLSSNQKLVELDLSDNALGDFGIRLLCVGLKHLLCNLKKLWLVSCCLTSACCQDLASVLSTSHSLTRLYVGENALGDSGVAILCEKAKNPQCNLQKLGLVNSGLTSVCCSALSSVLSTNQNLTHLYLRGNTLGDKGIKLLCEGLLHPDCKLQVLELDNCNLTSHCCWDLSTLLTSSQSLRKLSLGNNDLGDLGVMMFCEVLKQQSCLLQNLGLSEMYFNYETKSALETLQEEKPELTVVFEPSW

Row | SMILES | IC50 [1] [nM] | IC50 [2] [nM]
1 | CN1C[C@H](F)C[C@@H](Nc2nnc(-c3ccccc3O)c3ccncc23)C1 (relative stereo) [Example 172, 2-(4-((trans-5-fluoro-1-methylpiperidin-3-yl)amino)pyrido[3,4-d]pyridazin-1-yl)phenol] | 20 | > 30000
2 | Cc1ccc(-c2nnc(N[C@@H]3C[C@@H](F)CN(C)C3)c3cnccc23)c(O)c1 (relative stereo) [Example 173, 2-(4-((trans-5-fluoro-1-methylpiperidin-3-yl)amino)pyrido[3,4-d]pyridazin-1-yl)-5-methylphenol] | 3 | > 30000
3 | COc1ccc(-c2nnc(Nc3cccc(O)c3)c3ccccc23)cc1 [Example 1, 3-((4-(4-methoxyphenyl)phthalazin-1-yl)amino)phenol] | 1880 | 7200
4 | CN1CCCC(Nc2nnc(-c3ccc(C4CC4)cc3)c3ccccc23)C1 (centres unmarked) [Example 16, 4-(4-cyclopropylphenyl)-N-(1-methylpiperidin-3-yl)phthalazin-1-amine] | 112 | > 30000
5 | Oc1cccc(Nc2nnc(-c3ccc(C4CC4)cc3)c3ccccc23)c1 [Example 19, 3-((4-(4-cyclopropylphenyl)phthalazin-1-yl)amino)phenol] | 1090 | 7760
6 | CN1CCCC(Nc2nnc(-c3ccc(C(F)F)cc3)c3ccccc23)C1 (centres unmarked) [Example 21, 4-(4-(difluoromethyl)phenyl)-N-(1-methylpiperidin-3-yl)phthalazin-1-amine] | 75 | > 30000
7 | CN1CCC[C@@H](Nc2nnc(-c3ccccc3O)c3ccncc23)C1 [Example 28, (R)-2-(4-((1-methylpiperidin-3-yl)amino)pyrido[3,4-d]pyridazin-1-yl)phenol] | 8 | > 30000
8 | Cc1ccc(-c2nnc(N[C@@H]3CCCN(C)C3)c3cnccc23)cc1 [Example 30, (R)—N-(1-methylpiperidin-3-yl)-1-(p-tolyl)pyrido[3,4-d]pyridazin-4-amine] | 97 | > 30000
9 | COc1ccc(-c2nnc(N[C@@H]3CCCN(C)C3)c3cnccc23)cc1 [Example 35, (R)-1-(4-methoxyphenyl)-N-(1-methylpiperidin-3-yl)pyrido[3,4-d]pyridazin-4-amine] | 88 | > 30000
10 | COc1ccc(-c2nnc(N[C@@H]3CCCN(C)C3)c3cnccc23)c(O)c1 [Example 36, (R)-5-methoxy-2-(4-((1-methylpiperidin-3-yl)amino)pyrido[3,4-d]pyridazin-1-yl)phenol] | 10 | > 30000
11 | COc1ccc(-c2nnc(Nc3ccccc3O)c3ccccc23)cc1 [Example 39, 2-((4-(4-methoxyphenyl)phthalazin-1-yl)amino)phenol] | 1620 | > 30000
12 | COc1ccc(-c2nnc(Nc3cccc(O)c3)c3cnccc23)cc1 [Example 40, 3-((1-(4-methoxyphenyl)pyrido[3,4-d]pyridazin-4-yl)amino)phenol] | 3020 | > 30000
13 | COc1ccc(-c2nnc(Nc3cccc(O)c3)c3ccncc23)cc1 [Example 41, 3-((4-(4-methoxyphenyl)pyrido[3,4-d]pyridazin-1-yl)amino)phenol] | 394 | > 30000
14 | CN1CCCC(Nc2nnc(-c3ccc(Cl)cc3F)c3ccccc23)C1 (centres unmarked) [Example 43, 4-(4-chloro-2-fluorophenyl)-N-(1-methylpiperidin-3-yl)phthalazin-1-amine] | 41 | > 30000
15 | CN1CCCC(Nc2nnc(-c3ccc(Cl)c(F)c3)c3ccccc23)C1 (centres unmarked) [Example 44, 4-(4-chloro-3-fluorophenyl)-N-(1-methylpiperidin-3-yl)phthalazin-1-amine] | 97 | > 30000
16 | COc1cc(F)ccc1-c1nnc(N[C@@H]2C[C@@H](F)CN(C)C2)c2cnccc12 [Example 181, N-((3R,5R)-5-fluoro-1-methylpiperidin-3-yl)-1-(4-fluoro-2-methoxyphenyl)pyrido[3,4-d]pyridazin-4-amine] | 1000 | –
17 | COc1cc(F)ccc1-c1nnc(N[C@@H]2C[C@@H](F)CN(C)C2)c2ccncc12 [Example 182, N-((3R,5R)-5-fluoro-1-methylpiperidin-3-yl)-4-(4-fluoro-2-methoxyphenyl)pyrido[3,4-d]pyridazin-1-amine] | 3470 | –
18 | CN1C[C@H](F)C[C@@H](Nc2nnc(-c3ccc(Cl)cc3F)c3cnccc23)C1 [Example 183, 4-(4-chloro-2-fluorophenyl)-N-((3R,5R)-5-fluoro-1-methylpiperidin-3-yl)pyrido[3,4-d]pyridazin-1-amine] | 589 | –
19 | F[C@H]1CNC[C@H](Nc2nnc(-c3ccc(Cl)cc3)c3cnccc23)C1 [Example 187, 4-(4-chlorophenyl)-N-((3R,5R)-5-fluoropiperidin-3-yl)pyrido[3,4-d]pyridazin-1-amine] | 3090 | –
20 | F[C@H]1CNC[C@H](Nc2nnc(-c3ccc(Cl)cc3)c3ccncc23)C1 [Example 188, 1-(4-chlorophenyl)-N-((3R,5R)-5-fluoropiperidin-3-yl)pyrido[3,4-d]pyridazin-4-amine] | 692 | –
21 | FC1(F)CNCC(Nc2nnc(-c3ccc(Cl)cc3)c3ccccc23)C1 (centres unmarked) [Example 191, 4-(4-chlorophenyl)-N-(5,5-difluoropiperidin-3-yl)phthalazin-1-amine] | 1290 | –
22 | COC1CC(N2CCCC(Nc3nnc(-c4ccc(Cl)cc4)c4ccncc34)C2)C1 (centres unmarked) [Example 197, 1-(4-chlorophenyl)-N-(1-(3-methoxycyclobutyl)piperidin-3-yl)pyrido[3,4-d]pyridazin-4-amine] | 708 | –
23 | COc1ccc(-c2nnc(Nc3cccc(O)c3)c3ncccc23)cc1 [Example 198, 3-((5-(4-methoxyphenyl)pyrido[2,3-d]pyridazin-8-yl)amino)phenol] | 4380 | –
24 | COc1ccc(-c2nnc(Nc3cccc(O)c3)c3c2CCCC3)cc1 [Example 199, 3-((4-(4-methoxyphenyl)-5,6,7,8-tetrahydrophthalazin-1-yl)amino)phenol] | 2750 | –
25 | CN1C[C@H](F)C[C@@H](Nc2nnc(-c3ccccc3O)c3c2CCOC3)C1 [Example 202, 2-(1-(((3R,5R)-5-fluoro-1-methylpiperidin-3-yl)amino)-7,8-dihydro-5H-pyrano[3,4-d]pyridazin-4-yl)phenol] | 210 | –
26 | COc1ccc(-c2nnc(N[C@@H]3CCCN(C)C3)c3c2COCC3)cc1 [Example 223, (R)-4-(4-methoxyphenyl)-N-(1-methylpiperidin-3-yl)-7,8-dihydro-5H-pyrano[3,4-d]pyridazin-1-amine] | 457 | –
27 | CN1CCC[C@@H](Nc2nnc(-c3ccccc3O)c3c2CCOC3)C1 [Example 227, (R)-2-(1-((1-methylpiperidin-3-yl)amino)-7,8-dihydro-5H-pyrano[3,4-d]pyridazin-4-yl)phenol] | 21 | –
28 | COc1ccc(-c2nnc(N[C@@H]3CCCN(C4CC4)C3)c3c2CCOC3)cc1 [Example 228, (R)—N-(1-cyclopropylpiperidin-3-yl)-1-(4-methoxyphenyl)-7,8-dihydro-5H-pyrano[3,4-d]pyridazin-4-amine] | 23 | –
29 | Cc1ccc(-c2nnc(NC34CCC(O)(CC3)C4)c3c2CCOC3)c(O)c1 [Example 231, 4-((1-(2-hydroxy-4-methylphenyl)-7,8-dihydro-5H-pyrano[3,4-d]pyridazin-4-yl)amino)bicyclo[2.2.1]heptan-1-ol] | 195 | –
